Measurements taken from the NIST ThermoML archive (doi:10.1021/je100581m).
Numbers after ± are expanded uncertainties.

Test: xn = mol fraction of the nth substance listed
Details: Liquid, Vibrating tube method

C=CC(C)(O)CCC=C(C)C (stereo not given) [3,7-dimethyl-1,6-octadien-3-ol] + CCCO
mass density [kg/m3]
Details | x2 = 0 | x2 = 0.107 | x2 = 0.206 | x2 = 0.3066 | x2 = 0.4064 | x2 = 0.501 | x2 = 0.6034 | x2 = 0.7055 | x2 = 0.7985 | x2 = 0.898
313.15 K, 100 kPa | 844.5 ± 1.1 | 842.1 ± 1.1 | 840.1 ± 1.1 | 837.3 ± 1 | 834.1 ± 1 | 830.5 ± 1 | 825.6 ± 1 | 819.1 ± 1 | 811.6 ± 1 | 801.2 ± 1
313.15 K, 5000 kPa | 848.2 ± 1.1 | 845.8 ± 1.1 | 843.8 ± 1.1 | 841.1 ± 1.1 | 837.9 ± 1 | 834.4 ± 1 | 829.5 ± 1 | 823.1 ± 1 | 815.6 ± 1 | 805.3 ± 1
313.15 K, 10000 kPa | 851.6 ± 1.1 | 849.3 ± 1.1 | 847.3 ± 1.1 | 844.6 ± 1.1 | 841.5 ± 1 | 838 ± 1 | 833.2 ± 1 | 826.8 ± 1 | 819.4 ± 1 | 809.2 ± 1
313.15 K, 15000 kPa | 855 ± 1.2 | 852.8 ± 1.1 | 850.8 ± 1.1 | 848.1 ± 1.1 | 845.1 ± 1.1 | 841.5 ± 1 | 836.7 ± 1 | 830.4 ± 1 | 823.2 ± 1 | 813.1 ± 1
313.15 K, 20000 kPa | 858.4 ± 1.2 | 856.1 ± 1.1 | 854.1 ± 1.1 | 851.5 ± 1.1 | 848.4 ± 1.1 | 844.9 ± 1.1 | 840.2 ± 1 | 833.9 ± 1 | 826.7 ± 1 | 816.7 ± 1
328.15 K, 100 kPa | 831.7 ± 1.1 | 829.4 ± 1.1 | 827.3 ± 1.1 | 824.5 ± 1 | 821.3 ± 1 | 817.7 ± 1 | 812.8 ± 1 | 806.3 ± 1 | 799 ± 1 | 788.7 ± 1
328.15 K, 5000 kPa | 835.6 ± 1.1 | 833.3 ± 1.1 | 831.2 ± 1.1 | 828.5 ± 1.1 | 825.3 ± 1 | 821.8 ± 1 | 816.9 ± 1 | 810.5 ± 1 | 803.3 ± 1 | 793.1 ± 1
328.15 K, 10000 kPa | 839.5 ± 1.1 | 837.2 ± 1.1 | 835.2 ± 1.1 | 832.5 ± 1.1 | 829.3 ± 1 | 825.8 ± 1 | 821 ± 1 | 814.7 ± 1 | 807.5 ± 1 | 797.5 ± 1
328.15 K, 15000 kPa | 843.1 ± 1.2 | 840.9 ± 1.1 | 838.8 ± 1.1 | 836.2 ± 1.1 | 833 ± 1.1 | 829.5 ± 1 | 824.8 ± 1 | 818.5 ± 1 | 811.4 ± 1 | 801.5 ± 1
328.15 K, 20000 kPa | 846.7 ± 1.2 | 844.4 ± 1.1 | 842.4 ± 1.1 | 839.8 ± 1.1 | 836.7 ± 1.1 | 833.2 ± 1.1 | 828.5 ± 1 | 822.3 ± 1 | 815.2 ± 1 | 805.3 ± 1
